Entries after “also recorded” stand apart in the source; their conditions may differ.
Tests used:
COI1 = target: T1, COI1 (Arabidopsis thaliana, UniProt O04197); test: Ligand binding assay with synthetic JAZ peptides replacing recombinant JAZ1 (coronatine binding to COI1/ASK1); conditions: 300 nM coronatine
T1 construct: Full-length Arabidopsis thaliana COI1 and ASK1 were co-expressed; GST (cleaved yes); made in house; host or cells: Hi5 insect cells (COI1/ASK1); JAZ peptides synthetic
T1 sequence (O04197 1-592): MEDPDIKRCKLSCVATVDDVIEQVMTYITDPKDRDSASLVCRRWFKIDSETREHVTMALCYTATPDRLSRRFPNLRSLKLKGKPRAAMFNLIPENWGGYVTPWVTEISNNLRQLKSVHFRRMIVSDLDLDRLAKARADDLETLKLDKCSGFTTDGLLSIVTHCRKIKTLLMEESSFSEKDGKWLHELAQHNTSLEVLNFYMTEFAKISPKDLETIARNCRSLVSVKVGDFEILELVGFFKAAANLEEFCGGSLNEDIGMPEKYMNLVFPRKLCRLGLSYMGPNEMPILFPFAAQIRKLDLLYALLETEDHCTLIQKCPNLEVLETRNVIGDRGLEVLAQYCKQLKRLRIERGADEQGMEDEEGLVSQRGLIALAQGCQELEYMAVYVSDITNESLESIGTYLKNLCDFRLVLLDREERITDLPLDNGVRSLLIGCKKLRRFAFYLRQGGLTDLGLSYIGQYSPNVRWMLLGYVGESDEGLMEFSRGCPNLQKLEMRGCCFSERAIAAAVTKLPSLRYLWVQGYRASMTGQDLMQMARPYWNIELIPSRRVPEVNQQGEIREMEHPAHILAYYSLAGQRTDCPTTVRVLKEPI
T1 sequence (Q39255 1-160 partner): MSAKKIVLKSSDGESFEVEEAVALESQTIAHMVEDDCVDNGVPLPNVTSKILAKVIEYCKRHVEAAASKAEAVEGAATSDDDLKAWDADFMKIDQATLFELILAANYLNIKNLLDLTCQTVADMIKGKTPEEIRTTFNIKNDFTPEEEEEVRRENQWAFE
Description: (§1) Radioligand binding was assayed on purified proteins, with 2 mg COI1/ASK1 complex and JAZ proteins at a 1:3 molar ratio. Reactions were prepared in […] final volume and in a binding buffer containing 20 mM Tris-HCl 200 mM NaCl, and 10% glycerol. Saturation binding experiments were conducted with serial dilutions of 3H-coronatine in binding buffer. Nonspecific binding was determined in the presence of […] coronatine. Competition binding experiments were conducted with serial dilutions of JA-Ile in the presence of 100 nM ^3H coronatine with nonspecific binding determined in the presence of […] coronatine. Total binding was determined in the presence of vehicle only. Two-point binding experiments were performed in the presence of 100 nM or 300 nM ^3H-coronatine with nonspecific binding determined in the presence of […] coronatine. Following incubation with mixing at 4° C., all samples were collected with a cell harvester (Brandel, Gaithersburg, Md.) on polyethyleneimine (Sigma)-treated filters. Samples were incubated in liquid scintillation fluid for >1 hour before counting with a Packard Tri-Carb 2200 CA liquid scintillation analyzer (Packard Instrument Co.). Saturation binding experiments were analyzed by nonlinear regression, competition binding experiments by nonlinear regression with Ki calculation as described previously (Cheng 1973), and concentration-response data by sigmoidal dose-response curve fitting, all using GraphPad Prism version 4.00 for MacOSX.
Previous studies have shown that the highly conserved PY sequence at the C-terminal end of the Jas motif plays a role in JAZ localization and stability in vivo, but that the sequence was not necessary for ligand-dependent COI1-JAZ interaction. This was confirmed by an experiment showing that truncation of the PY motif in JAZ1 had little effect on in vitro ligand binding activity (FIG. 3). […]
Various derivatives of the JAZ1 degron sequence, as well as derivatives of the JAZ6 and JAZ7 degron sequences, were analyzed for their ability to bind COI1 with high affinity in the presence of coronatine.

COI1-JAZ6 complex = target: T2, COI1-JAZ6 complex (Arabidopsis thaliana, UniProt O04197+Q9C9E3); test: Competition binding with 100 nM 3H-coronatine; conditions: 100 nM 3H-COR, COI1-JAZ6 complex; read-out: Inhibition constant (Ki), competition with 3H-coronatine
T2 construct: Full-length Arabidopsis thaliana COI1 and ASK1 were co-expressed; Full-length JAZ substrate proteins were expressed as 6×His-fusion proteins in Escherichia coli; GST (cleaved yes); 6xHis; made in house; host or cells: Hi5 insect cells (COI1/ASK1); Escherichia coli (JAZ6)
T2 sequence (O04197 1-592): T1 sequence (O04197 1-592)
T2 sequence (Q39255 1-160 partner): T1 sequence (Q39255 1-160 partner)
T2 sequence (Q9C9E3 1-269): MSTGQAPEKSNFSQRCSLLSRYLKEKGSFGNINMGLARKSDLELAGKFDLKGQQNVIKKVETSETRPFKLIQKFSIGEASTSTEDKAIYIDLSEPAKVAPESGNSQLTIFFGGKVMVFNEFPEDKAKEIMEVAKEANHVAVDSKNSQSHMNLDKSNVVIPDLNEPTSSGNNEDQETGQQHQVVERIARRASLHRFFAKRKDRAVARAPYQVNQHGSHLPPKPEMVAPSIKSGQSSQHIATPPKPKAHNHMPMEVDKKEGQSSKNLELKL
Excerpt: (^3H)-labeled coronatine was synthesized by Amersham. Full-length Arabidopsis thaliana COI1 and ASK1 were co-expressed as a glutathione S-transferase (GST) fusion protein and an untagged protein, respectively, in Hi5 suspension insect cells. The COI1/ASK1 complex was isolated from the soluble cell lysate by glutathione affinity chromatography. After on-column tag cleavage by tobacco etch virus protease, the complex was further purified by anion exchange and gel filtration chromatography and concentrated by ultrafiltration to 12-18 mg ml^−1. Full-length JAZ substrate proteins were expressed as 6×His-fusion proteins in Escherichia coli and purified on Ni-NTA resin with subsequent dialysis into 20 mM Tris-HCl, pH 8.0, 200 mM NaCl, and 10% glycerol.
as §1, with “Samples were incubated in liquid scintillation fluid for >1 hour before counting with a Packard Tri-Carb 2200 CA liquid scintillation analyzer (Packard Instrument Co.).” left out

COI1/JAZ1 co-receptor [1] = target: T3, COI1/JAZ1 co-receptor (Arabidopsis thaliana, UniProt O04197+Q9LMA8); test: Ligand-binding based reconstitution assay (inositol phosphate rescue) with dialyzed COI1/ASK1 and JAZ1; conditions: for Effect of inositol phosphate on activity of the COI1/JAZ1 co-receptor (coronatine binding): dialyzed COI1, JAZ1, 1 μM inositol phosphate
T3 construct: Full-length Arabidopsis thaliana COI1 and ASK1 were co-expressed; Full-length JAZ substrate proteins were expressed as 6×His-fusion proteins in Escherichia coli; GST (cleaved yes); 6xHis; made in house; host or cells: Hi5 insect cells (COI1/ASK1); Escherichia coli (JAZ1)
T3 sequence (O04197 1-592): T1 sequence (O04197 1-592)
T3 sequence (Q39255 1-160 partner): T1 sequence (Q39255 1-160 partner)
T3 sequence (Q9LMA8 1-253): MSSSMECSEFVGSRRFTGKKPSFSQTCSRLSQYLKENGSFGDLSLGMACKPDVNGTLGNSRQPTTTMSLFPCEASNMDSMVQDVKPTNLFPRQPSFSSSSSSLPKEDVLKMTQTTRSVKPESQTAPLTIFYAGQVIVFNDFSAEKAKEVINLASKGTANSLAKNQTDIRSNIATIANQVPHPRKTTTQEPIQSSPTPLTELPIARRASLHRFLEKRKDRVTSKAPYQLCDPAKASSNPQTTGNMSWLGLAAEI
Description: as §1
To assess the functional role of Ins(1,2,4,5,6)P5 in the COI1/JAZ1 co-receptor, a protocol was developed for stripping the co-purified InsP5 from COI1 without denaturing the protein. Briefly, proteins were mixed with 10% glycerol and incubated in 2 M ammonium phosphate, 100 mM Bis-Tris propane, pH 7.0, 200 mM NaCl, and 10% glycerol at 4° C. for >24 hours with a minimum of 3× buffer changes at 100× sample volume. Samples were then transferred to 20 mM Tris-HCl, pH 8.0, 200 mM NaCl, and 10% glycerol at 4° C. for >24 hours with a minimum of three buffer changes at 100× sample volume. Inositol phosphate rescue experiments were conducted according to the radioligand binding assays described above in the presence of 300 nM ^3H-coronatine with nonspecific binding determined in the presence of 300 μM coronatine.
The resulting COI1/ASK1 complex was tested in a ligand-binding based reconstitution assay. […] From this reconstitution result, it was concluded that Ins(1,2,4,5,6)P5 binding is crucial for the jasmonate coreceptor to perceive the hormone with high sensitivity.

COI1/JAZ1 co-receptor [2] = target: T3, COI1/JAZ1 co-receptor; test: as above; conditions: 100 nM 3H-coronatine, read-out: EC50, rescue of 3H-coronatine binding to dialyzed COI1/ASK1 in the presence of JAZ1

Compound	Binding of peptide to COI1 in the presence of coronatine (COI1)	Effect of inositol phosphate on activity of the COI1/JAZ1 co-receptor (coronatine binding) (COI1/JAZ1 co-receptor [1])	other results
JAZ1 +4 extension: LPIARRASLHRFLEKRKDRV (listed as Arabidopsis thaliana)	much higher affinity	–	–
CCC=CC[C@H]1C(=O)CC[C@@H]1CC(=O)N[C@H](C(=O)O)[C@@H](C)CC [(3R,7R)-JA-Ile]	–	–	Ki (COI1-JAZ6 complex): 18000 ± 19000 nM
O=P(O)(O)OC1C(OP(=O)(O)O)C(OP(=O)(O)O)C(OP(=O)(O)O)C(OP(=O)(O)O)C1OP(=O)(O)O (stereo not drawn) [InsP6, inositol hexakisphosphate]	–	not favorable for activity; also recorded: significantly less efficacious	–
O=P(O)(O)O[C@H]1[C@H](OP(=O)(O)O)[C@@H](OP(=O)(O)O)[C@@H](O)[C@@H](O)[C@@H]1OP(=O)(O)O [inositol-1,4,5,6-tetrakisphosphate]	–	supports the activity	–
O=P(O)(O)OC1C(O)C(OP(=O)(O)O)C(OP(=O)(O)O)C(OP(=O)(O)O)C1OP(=O)(O)O (stereo not drawn) [Ins(1,2,4,5,6)P5, inositol-1,2,4,5,6-pentakisphosphate]	–	rescued the interaction in a dose-dependent manner	EC50 (COI1/JAZ1 co-receptor [2]): 27 nM; Effect of inositol phosphate on activity of the COI1/JAZ1 co-receptor (coronatine binding) (COI1/JAZ1 co-receptor [1]; listed as InsP5): rescues binding; Effect of exogenous inositol phosphate on untreated COI1/JAZ1 co-receptor activity (COI1/JAZ1 co-receptor [1]; untreated (not dialyzed) COI1, JAZ1, 1 μM): did not significantly change its activity
O=P(O)(O)O[C@@H]1[C@H](O)[C@H](O)[C@@H](OP(=O)(O)O)[C@H](OP(=O)(O)O)[C@H]1O [inositol-1,4,5-trisphosphate]	–	does not	–
CC/C=C\C[C@@H]1C(=O)CC[C@@H]1CC(=O)N[C@H](C(=O)O)[C@@H](C)CC [(3R,7S)-JA-Ile, (3R,7S)-jasmonyl-L-isoleucine]	–	–	Ki (COI1-JAZ6 complex): 1800 ± 600 nM

The next lines start with results.

Binding of peptide to COI1 in the presence of coronatine (COI1)	Compound	Effect of inositol phosphate on activity of the COI1/JAZ1 co-receptor (coronatine binding) (COI1/JAZ1 co-receptor [1])	other results
significant binding	JAZ1-extension +5+PY: ELPIARRASLHRFLEKRKDRVTSKAPY (listed as Arabidopsis thaliana)	–	–
did not bind to COI1 with high affinity	JAZ1 degron: RRASLHRFLEKRKDRVTSKAPY (R205-Y226 of JAZ1) (listed as Arabidopsis thaliana)	–	–
